Test results from paper PMC10894853, “Distribution and elimination kinetics of midazolam and metabolites after post-resuscitation care: a prospective observational study” (Scientific Reports, 2024).

Assays:
[1] = Non-compartmental pharmacokinetics of midazolam and metabolites in plasma after discontinuation of MDZ infusion (LC-MS/MS); format: in vivo, human; details: for AUClast / AUCinf: relative concentration; for MRT inf: read-out: MRTinf (mean residence time); for MRT last: read-out: MRTlast (mean residence time)
Procedure: The PK parameters were obtained using a non-compartmental method with Phoenix WinNonlin (version 8.3.5; Certara, USA). […] The AUC from time 0 to infinity (AUCinf) was calculated as AUClast + Clast/λz, where Clast is the last measurable concentration and λz is the elimination rate constant. The mean residence time was calculated as […]. The estimated t1/2 was calculated from λz based on a previously reported equation[12].
All samples were immediately frozen and stored at –70 ℃ after centrifugation with 3,000 rpm for 10 min and then sent to the Nutrition Food Microbiology Laboratory at Chungnam National University (http://nfml.kr/) to determine the concentration of midazolam and its metabolites using liquid chromatography with tandem mass spectrometry analysis.
The sample preparation method was performed as previously described with some modifications. A 20 µL of sample was mixed with 180 µL of 80% methanol, followed by protein precipitation at 4 °C for 30 min. Subsequently, the supernatant was harvested and added to 1800 µL of distilled water. The pre-treated samples were loaded onto an Oasis HLB Vac RC cartridge (30 mg, 20 cc, Waters) that had been preconditioned with 6 mL of methanol and 6 mL of distilled water. The cartridge was washed with 6 mL distilled water and sequentially eluted with methanol (4 mL). The eluted samples were dried using an evaporator and resuspended with 0.2 mL of methanol for analysis.

[2] = cited from earlier work
[3] = Distribution (proportion of total relative concentration) of midazolam and metabolites in plasma after discontinuation of MDZ infusion; details: range over sampling times 0 to 24 h
Procedure: Serum samples for analyzing the plasma concentration of MDZ and its metabolites were obtained immediately (baseline) and at 4, 8, 12, and 24 h after the discontinuation of MDZ infusion.
The distribution of each compound was assessed by calculating its relative concentration as a ratio to the total sum of relative concentrations at each sampling time.

[4] = Awakening time and estimated midazolam concentration at awakening (simple linear regression); format: in vivo, human
Procedure: The primary outcome of this study was the distribution and elimination of MDZ and its metabolites over 24 h following the discontinuation of MDZ infusion after targeted temperature management (33 or 36℃). The secondary outcome was the association between the PK parameters and awakening time in a subgroup of patients who experienced neurological recovery.
We investigated the PK parameters for all compounds in each individual. […] Among these four patients, the mean of the estimated MDZ concentration was 16.8 ng/mL.
Figure 4 Simple linear regression analysis between the absolute concentration of midazolam and awakening time in the subgroup of awakened patients after post-resuscitation care (n = 7). […] The regression line (grid line) is followed the regression equation: Y = − 4.506 × X + 105.5.

[5] = after discontinuation of MDZ infusion, mean ± SD
[6] = plasma, 0 to 24 h after discontinuation of MDZ infusion, arithmetic mean ± SD
[7] = plasma, time 0 to infinity after discontinuation of MDZ infusion, mean ± SD
[8] = human, plasma, intravenous, after discontinuation of MDZ infusion, mean ± SD

Row | Molecule | MRTinf (mean residence time) [1, 5] | MRTlast (mean residence time) [1, 5] | t1/2 (elimination half-life) [1, 5] | AUClast [1, 6] | AUCinf [1, 7] | also measured
1 | OCc1ncc2n1-c1ccc(Cl)cc1C(c1ccccc1F)=NC2 [1-OH-MDZ, 1-hydroxymidazolam] | 10.5 ± 5.2 h | 6.0 ± 2.3 h | 8.1 ± 4.9 h | 1117.2 ± 1643.5 h*ppm | 1419.1 ± 1845.5 h*ppm | Potency for sedation effect [2]: 60–63%; Proportion in total concentration [3]: 3.3–4.2%
2 | O=C(O)[C@H]1O[C@@H](OCc2ncc3n2-c2ccc(Cl)cc2C(c2ccccc2F)=NC3)[C@H](O)[C@@H](O)[C@@H]1O [1-OH-MDZ-Glu, 1-hydroxymidazolam glucuronide] | 21.8 ± 26.8 h | 6.8 ± 2.4 h | 15.4 ± 19.9 h | 9193.0 ± 13,958.4 h*ppm | 14,027.8 ± 15,486.2 h*ppm | Pharmacological potency (sedation) [2]: < 6%; Potency for sedation [2]: 6–10%
3 | Cc1ncc2n1-c1ccc(Cl)cc1C(c1ccccc1F)=NC2O (stereo not drawn) [4-OH-MDZ, 4-hydroxymidazolam] |  |  |  | 172.5 ± 268.0 h*ppm | 204.7 ± 294.8 h*ppm | MRT inf [1, 8]: 10 ± 4.8 h; MRT last [1, 8]: 5.6 ± 1.5 h; half-life ([1]; human, plasma, intravenous, after discontinuation of MDZ infusion, mean ± SD, read-out: t1/2 (elimination half-life) (converted)): 7.3 ± 3.8 h; Potency for sedation [2]: 0–2%
4 | Cc1ncc2n1-c1ccc(Cl)cc1C(c1ccccc1F)=NC2O[C@@H]1O[C@H](C(=O)O)[C@@H](O)[C@H](O)[C@H]1O (stereo partly drawn) [4-OH-MDZ-Glu, 4-hydroxymidazolam glucuronide] | 7.9 ± 1.4 h | 6.4 ± 2.2 h | 5.4 ± 0.7 h | 29.8 ± 24.4 h*ppm | 33.3 ± 34.3 h*ppm | 
5 | Cc1ncc2n1-c1ccc(Cl)cc1C(c1ccccc1F)=NC2 [MDZ, midazolam] |  |  | 6.2 ± 3.9 h |  |  | AUC(0-t) ([1]; human, intravenous, plasma, 0 to 24 h after discontinuation of MDZ infusion, absolute concentration, arithmetic mean ± SD): 1770 ± 2740 ng·h/mL; AUC(0-inf) ([1]; human, intravenous, plasma, time 0 to infinity after discontinuation of MDZ infusion, absolute concentration, mean ± SD): 2110 ± 3050 ng·h/mL; MRT inf [1, 8]: 8.2 ± 5.2 h; MRT last [1, 8]: 4.9 ± 1.6 h; concentration at 16.6 h ([4]; human, plasma, intravenous, 0.15 mg/kg/h, from regression equation Y = − 4.506 × X + 105.5 at 16.6 h, awakened patients n = 7, read-out: Estimated concentration of midazolam at the subgroup awakening time): 30.7 ng/mL; Mean of the estimated MDZ concentration at awakening time ([4]; individual regression analysis, four out of seven awakened patients): 16.8 ng/mL; Awakening time in the subgroup after discontinuation of the midazolam infusion ([4]; subgroup of awakened patients n = 7): 16.6 h; Awaken time after discontinuation of midazolam intravenous infusion ([4]; subject #1): 9.6 h; Estimated midazolam concentration at awaken time ([4]; subject #1): 32.3 ng/mL; Awaken time after discontinuation of midazolam intravenous infusion ([4]; subject #2): 10.4 h; Estimated midazolam concentration at awaken time ([4]; subject #2): 20.8 ng/mL; Awaken time after discontinuation of midazolam intravenous infusion ([4]; subject #3): 9.6 h; Estimated midazolam concentration at awaken time ([4]; subject #3): 2.2 ng/mL; Awaken time after discontinuation of midazolam intravenous infusion ([4]; subject #4): 7.1 h; Estimated midazolam concentration at awaken time ([4]; subject #4): 11.9 ng/mL; Proportion in total concentration [3]: 21.2–38.4%
6 | di-hydroxymidazolam glucuronide [Di-OH-MDZ-Glu] | 19.2 ± 13.0 h | 6.4 ± 2.1 h | 14.3 ± 9.6 h | 187.4 ± 272.0 h*ppm | 200.2 ± 307.1 h*ppm | 
7 | dihydroxymidazolam [Di-OH-MDZ] | 21.0 ± 19.8 h | 6.4 ± 2.5 h | 14.5 ± 13.7 h | 38.2 ± 49.8 h*ppm | 56.2 ± 52.1 h*ppm | 
8 | midazolam glucuronide [MDZ-Glu] | 16.2 ± 24.1 h | 5.8 ± 1.9 h |  |  |  | 
